From ChEMBL document CHEMBL5143599, “Unraveling the Design and Discovery of c-Jun N-Terminal Kinase Inhibitors and Their Therapeutic Potential in Human Diseases” (J Med Chem, 2022) come the findings set out here.

pIC50: −log10 of the molar value. Non-standard residues stand in square brackets, D forms with d. Residues, ends and D or L forms follow the SMILES beside them. Ahx = NCCCCCC(=O)O Bounds are passed on as bounds.

Assay [1] has as its target T1, Mitogen-activated protein kinase 10 (Homo sapiens, UniProt P53779). The experiment in a line: Inhibition of JNK3 (unknown origin) using biotinylated FL-ATF-2 as substrate incubated for 15 mins by HTRF assay.
Assay [2] addresses T2, Mitogen-activated protein kinase 8 (Homo sapiens, UniProt P45983). The experiment in a line: Inhibition of JNK1 (unknown origin) using biotinylated FL-ATF-2 as substrate incubated for 15 mins by HTRF assay.
In assay [3] the target is T3, c-Jun N-terminal kinase, JNK (Homo sapiens, UniProt P45983+P53779+P45984). Briefly: Inhibition of c-Jun phosphorylation in human HeLa cells. The format is cell-based.
For assay [4], the target named is T3, c-Jun N-terminal kinase, JNK. The experiment in a line: Inhibition of c-Jun phosphorylation in human A-375 cells. The format is cell-based.
In assay [5] the target is T1, Mitogen-activated protein kinase 10. The experiment in a line: Inhibition of JNK3 (unknown origin) irradiated with 400 nm light.
For assay [6] the target is unchanged. The experiment in a line: Inhibition of JNK3 (unknown origin) in dark.
Assay [7] deals with T2, Mitogen-activated protein kinase 8. Briefly: Inhibition of JNK1 (unknown origin).
In assay [8] the target is T1, Mitogen-activated protein kinase 10. The experiment in a line: Inhibition of JNK3 (unknown origin).
Assay [9] deals with Mitogen-activated protein kinase 14 (Homo sapiens, UniProt Q16539). The experiment in a line: Inhibition of p38alpha (unknown origin).
Assay [10] has as its target Leucine-rich repeat serine/threonine-protein kinase 2 (Homo sapiens, UniProt Q5S007). Briefly: Inhibition of LRRK2 (unknown origin).
The target in assay [11] is T2, Mitogen-activated protein kinase 8. The experiment in a line: Inhibition of JNK1 (unknown origin) incubated for 1 hr by TR-FRET assay.
In assay [12] the target is Mitogen-activated protein kinase 9 (Homo sapiens, UniProt P45984). The experiment in a line: Inhibition of JNK2 (unknown origin) using GST-c-jun (1-221) as substrate by scintillation counter analysis.
For assay [13], the target named is T1, Mitogen-activated protein kinase 10. Briefly: Inhibition of JNK3 (unknown origin) using GST-c-jun (1-221) as substrate by scintillation counter analysis.
Assay [14] deals with T2, Mitogen-activated protein kinase 8. The experiment in a line: Inhibition of JNK1 (unknown origin) using GST-c-jun (1-221) as substrate by scintillation counter analysis.
In assay [15] the target is Mitogen-activated protein kinase 8 (Mus musculus, UniProt Q91Y86). Briefly: Inhibition of JNK1 in mouse JB6 C1 41 cell lysate incubated for 1 hr relative to control. It counts as subcellular, JB6 Cl 41-5a.
A short description of assay [16]: Inhibition of transformation of H-RAS induced mouse JB6 C1 41 cells at 5 uM. Also on record: scale not given: the % may be the effect or the level left. It counts as functional, JB6 Cl 41-5a.
The nature of assay [17]: Antitumor activity against UVB-induced skin cancer SKH-1 mouse model assessed as reduction in tumor growth at 4 nmol, top relative to control. The format is functional, Tumor cell line. More on the design: scale not given: the % may be the effect or the level left.
The nature of assay [18]: Antitumor activity against UVB-induced skin cancer SKH-1 mouse model assessed as reduction in tumor growth at 20 nmol, top relative to control. The format is functional, Tumor cell line. More on the design: scale not given: the % may be the effect or the level left.

T2 sequence (P45983 whole entry): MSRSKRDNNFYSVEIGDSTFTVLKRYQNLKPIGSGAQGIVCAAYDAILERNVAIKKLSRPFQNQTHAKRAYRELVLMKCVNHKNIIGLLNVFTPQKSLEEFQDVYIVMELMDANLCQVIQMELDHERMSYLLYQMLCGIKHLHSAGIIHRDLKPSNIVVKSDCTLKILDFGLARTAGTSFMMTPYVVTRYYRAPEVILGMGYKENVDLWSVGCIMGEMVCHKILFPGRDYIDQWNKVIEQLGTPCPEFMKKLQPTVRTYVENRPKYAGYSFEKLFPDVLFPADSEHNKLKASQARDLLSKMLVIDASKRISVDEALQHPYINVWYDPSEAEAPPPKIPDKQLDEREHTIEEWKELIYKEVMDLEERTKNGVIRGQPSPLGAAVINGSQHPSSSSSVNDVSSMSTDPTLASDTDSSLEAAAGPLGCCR
T1 sequence (P53779 whole entry): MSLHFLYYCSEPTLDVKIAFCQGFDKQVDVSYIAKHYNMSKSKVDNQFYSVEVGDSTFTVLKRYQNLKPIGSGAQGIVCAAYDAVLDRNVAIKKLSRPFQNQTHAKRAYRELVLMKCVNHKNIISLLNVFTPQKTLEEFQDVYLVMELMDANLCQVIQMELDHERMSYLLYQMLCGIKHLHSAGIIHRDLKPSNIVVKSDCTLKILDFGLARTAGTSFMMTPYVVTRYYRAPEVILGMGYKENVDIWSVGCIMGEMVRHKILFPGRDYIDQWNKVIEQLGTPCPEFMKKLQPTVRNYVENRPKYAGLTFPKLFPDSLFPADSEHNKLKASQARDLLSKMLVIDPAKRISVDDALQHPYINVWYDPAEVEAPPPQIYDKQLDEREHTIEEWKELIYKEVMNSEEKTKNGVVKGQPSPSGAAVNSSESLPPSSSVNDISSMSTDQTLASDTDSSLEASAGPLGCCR
Mitogen-activated protein kinase 9, sequence (P45984 whole entry): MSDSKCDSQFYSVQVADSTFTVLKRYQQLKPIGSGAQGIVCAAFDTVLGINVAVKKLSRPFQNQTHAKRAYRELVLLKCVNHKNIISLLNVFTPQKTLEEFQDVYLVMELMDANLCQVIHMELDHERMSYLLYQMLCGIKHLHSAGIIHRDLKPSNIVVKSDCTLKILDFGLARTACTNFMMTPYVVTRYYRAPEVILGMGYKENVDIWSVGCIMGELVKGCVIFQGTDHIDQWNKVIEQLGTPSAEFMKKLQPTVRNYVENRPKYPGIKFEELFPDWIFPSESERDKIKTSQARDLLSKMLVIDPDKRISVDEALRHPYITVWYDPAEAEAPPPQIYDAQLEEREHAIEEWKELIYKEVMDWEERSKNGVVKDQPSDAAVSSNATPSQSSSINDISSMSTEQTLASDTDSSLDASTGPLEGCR
Mitogen-activated protein kinase 14, sequence (Q16539 whole entry): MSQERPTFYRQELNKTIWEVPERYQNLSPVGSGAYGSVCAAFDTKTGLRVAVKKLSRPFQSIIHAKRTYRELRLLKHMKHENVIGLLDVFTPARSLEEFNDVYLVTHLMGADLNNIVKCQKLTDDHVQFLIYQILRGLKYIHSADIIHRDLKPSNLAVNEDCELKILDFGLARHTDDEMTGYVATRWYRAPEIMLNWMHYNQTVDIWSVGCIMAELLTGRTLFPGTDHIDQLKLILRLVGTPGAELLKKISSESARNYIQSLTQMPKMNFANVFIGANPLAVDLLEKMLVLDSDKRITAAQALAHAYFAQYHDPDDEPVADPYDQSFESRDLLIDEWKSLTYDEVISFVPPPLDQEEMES
Leucine-rich repeat serine/threonine-protein kinase 2, sequence (Q5S007 whole entry): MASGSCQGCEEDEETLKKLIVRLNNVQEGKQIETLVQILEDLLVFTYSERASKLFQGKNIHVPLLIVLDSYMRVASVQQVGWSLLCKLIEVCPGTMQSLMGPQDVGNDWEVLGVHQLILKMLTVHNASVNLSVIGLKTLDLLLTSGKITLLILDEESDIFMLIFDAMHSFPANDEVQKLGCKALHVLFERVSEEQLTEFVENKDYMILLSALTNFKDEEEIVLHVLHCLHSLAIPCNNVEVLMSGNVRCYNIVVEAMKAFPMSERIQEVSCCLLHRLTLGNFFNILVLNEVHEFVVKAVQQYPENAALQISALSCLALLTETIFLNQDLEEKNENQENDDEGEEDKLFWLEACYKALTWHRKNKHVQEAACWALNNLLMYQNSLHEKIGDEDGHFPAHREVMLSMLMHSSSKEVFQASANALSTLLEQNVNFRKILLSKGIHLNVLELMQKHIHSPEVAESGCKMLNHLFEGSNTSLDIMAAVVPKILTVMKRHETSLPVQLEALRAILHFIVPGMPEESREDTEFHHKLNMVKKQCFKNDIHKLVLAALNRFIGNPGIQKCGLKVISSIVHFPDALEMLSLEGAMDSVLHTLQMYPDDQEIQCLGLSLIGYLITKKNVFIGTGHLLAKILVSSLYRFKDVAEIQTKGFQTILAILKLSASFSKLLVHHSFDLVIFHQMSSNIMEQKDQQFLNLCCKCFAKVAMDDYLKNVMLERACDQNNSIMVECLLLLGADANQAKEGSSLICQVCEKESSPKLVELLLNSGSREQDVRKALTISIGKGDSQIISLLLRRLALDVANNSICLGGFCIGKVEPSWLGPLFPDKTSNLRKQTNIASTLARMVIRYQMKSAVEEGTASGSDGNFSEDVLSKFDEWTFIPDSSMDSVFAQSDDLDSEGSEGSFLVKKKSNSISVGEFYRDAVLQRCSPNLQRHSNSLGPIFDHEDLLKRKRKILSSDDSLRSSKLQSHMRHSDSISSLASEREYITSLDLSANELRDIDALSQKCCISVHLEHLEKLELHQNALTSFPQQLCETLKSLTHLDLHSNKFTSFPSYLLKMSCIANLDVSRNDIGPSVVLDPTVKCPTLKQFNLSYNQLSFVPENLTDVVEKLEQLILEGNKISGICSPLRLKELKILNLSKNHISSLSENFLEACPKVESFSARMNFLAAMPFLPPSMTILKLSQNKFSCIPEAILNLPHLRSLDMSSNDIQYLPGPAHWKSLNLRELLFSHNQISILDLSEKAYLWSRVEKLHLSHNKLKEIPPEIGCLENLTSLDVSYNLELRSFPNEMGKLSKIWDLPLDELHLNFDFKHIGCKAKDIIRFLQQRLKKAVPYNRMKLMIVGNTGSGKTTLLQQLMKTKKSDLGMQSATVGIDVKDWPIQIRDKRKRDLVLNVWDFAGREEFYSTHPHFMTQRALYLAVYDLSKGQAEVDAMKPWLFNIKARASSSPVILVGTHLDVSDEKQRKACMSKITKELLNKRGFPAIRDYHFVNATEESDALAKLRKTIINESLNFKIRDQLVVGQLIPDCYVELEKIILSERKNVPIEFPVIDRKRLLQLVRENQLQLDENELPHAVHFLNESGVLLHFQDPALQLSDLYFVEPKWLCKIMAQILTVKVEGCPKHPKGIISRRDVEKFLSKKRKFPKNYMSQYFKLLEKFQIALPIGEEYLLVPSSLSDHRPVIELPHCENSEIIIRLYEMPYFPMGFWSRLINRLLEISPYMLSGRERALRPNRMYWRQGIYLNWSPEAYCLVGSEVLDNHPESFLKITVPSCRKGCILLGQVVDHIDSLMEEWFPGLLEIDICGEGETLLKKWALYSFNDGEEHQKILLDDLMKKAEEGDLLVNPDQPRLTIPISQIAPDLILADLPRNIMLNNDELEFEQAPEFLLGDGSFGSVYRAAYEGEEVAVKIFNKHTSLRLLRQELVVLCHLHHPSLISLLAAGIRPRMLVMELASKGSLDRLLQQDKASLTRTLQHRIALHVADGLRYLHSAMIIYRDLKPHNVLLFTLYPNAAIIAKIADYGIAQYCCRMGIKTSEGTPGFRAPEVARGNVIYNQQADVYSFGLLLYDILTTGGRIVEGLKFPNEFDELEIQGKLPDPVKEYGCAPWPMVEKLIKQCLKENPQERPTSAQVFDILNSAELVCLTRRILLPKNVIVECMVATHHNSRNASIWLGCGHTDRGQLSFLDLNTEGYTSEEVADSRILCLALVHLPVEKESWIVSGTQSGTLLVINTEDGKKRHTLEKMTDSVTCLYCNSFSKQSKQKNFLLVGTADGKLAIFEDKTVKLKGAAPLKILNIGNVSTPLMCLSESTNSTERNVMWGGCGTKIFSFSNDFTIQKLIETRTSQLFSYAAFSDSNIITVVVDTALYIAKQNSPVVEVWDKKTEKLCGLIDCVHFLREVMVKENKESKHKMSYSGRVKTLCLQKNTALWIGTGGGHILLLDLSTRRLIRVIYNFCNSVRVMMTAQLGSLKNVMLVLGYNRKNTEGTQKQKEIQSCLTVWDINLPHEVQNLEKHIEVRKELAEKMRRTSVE
Mitogen-activated protein kinase 8 (Mus musculus, UniProt Q91Y86), sequence (Q91Y86 whole entry): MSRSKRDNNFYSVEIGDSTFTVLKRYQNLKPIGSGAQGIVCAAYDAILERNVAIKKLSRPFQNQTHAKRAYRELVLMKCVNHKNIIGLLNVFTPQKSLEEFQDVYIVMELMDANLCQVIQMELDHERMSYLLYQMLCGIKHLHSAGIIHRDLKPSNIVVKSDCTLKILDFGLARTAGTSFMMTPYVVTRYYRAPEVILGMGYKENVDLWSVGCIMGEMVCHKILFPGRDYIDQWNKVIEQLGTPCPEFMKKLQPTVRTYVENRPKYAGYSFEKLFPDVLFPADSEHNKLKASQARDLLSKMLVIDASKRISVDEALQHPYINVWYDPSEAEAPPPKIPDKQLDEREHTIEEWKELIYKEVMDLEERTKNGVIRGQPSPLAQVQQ

Turning to `Cc1ccc(NC(=O)c2cccc(-n3cc(NC(=O)Nc4ccccc4Cl)cn3)c2)cn1`, the pIC50 in [1] was 7.26; in [2], 5.85.
As for `CN(C)C/C=C/C(=O)Nc1cccc(C(=O)Nc2ccc(Nc3nccc(-c4c(-c5ccccc5)nn5ccccc45)n3)cc2)c1`, the 50% effective concentration (EC50) in assay [3] turned out to be 48 nM; in [4], 8.6 nM.
Regarding `O=[N+]([O-])c1cnc(Sc2nnc(O)n2-c2ccc3c(c2)OCCO3)s1`, the pIC50 in [5] was 7.50; in assay [6], 6.29.
In the case of `O=c1c(O)c(-c2cc(O)c(O)c(CO)c2)oc2cc(O)c(O)c(O)c12`, the negative-log IC50 (pIC50) in assay [7] is 4.91.
As to `O=C(CSc1c(-c2ccccc2)c2cc(Cl)ccc2[nH]c1=O)NC1CCCC1`, the negative logarithm of the IC50 (pIC50) in [8] is 7.24.
For the molecule `C=CC(=O)Nc1cccc(C(=O)Nc2ccc(Nc3cc(-c4c(C)nc(SC)n4C)ccn3)cc2)c1`, the pIC50 is 5.70 in [8] and 5.71 in [9].
Consider `CC(C)CN(CC(=O)NCCCCCCNC(=O)c1ccc(-c2n[nH]c3ccccc23)cc1)C(=O)CNC(=O)C1COc2ccccc2C1` (stereo unspecified), for which the negative-log IC50 (pIC50) in [8] is 7.00; in [10] it was 7.92.
Consider `CSc1nc(C)c(-c2ccnc(Nc3ccc(N4CCOCC4)cc3)c2)[nH]1`, for which the pIC50 was 6.74 in [8] and less than 5.00 in assay [9].
As to `O=c1c(O)c(-c2cc(O)c(O)c(O)c2)oc2cc(O)c(O)c(O)c12`, the pIC50 in assay [7] was 5.47.
Molecule `COCCNc1nnc(Sc2ncc([N+](=O)[O-])s2)s1` showed a pIC50 in assay [11] of 6.55.
Take `CC[C@H](C)[C@H](NC(=O)[C@@H]1CCCN1)C(=O)N[C@@H](CS)C(=O)N[C@@H](CCCNC(=N)N)C(=O)N1CCC[C@H]1C(=O)N[C@H](C(=O)N[C@H](C(=O)N[C@@H](CC(C)C)C(=O)N[C@@H](CC(N)=O)C(=O)N[C@@H](CC(C)C)C(=O)N[C@@H](Cc1ccccc1)C(=O)NCCCCCC(=O)N[C@@H](CCCNC(=N)N)C(=O)N[C@@H](CCCNC(=N)N)C(=O)N[C@@H](C)C(=O)N[C@@H](CCCNC(=N)N)C(=O)N[C@@H](CCCNC(=N)N)C(=O)N[C@@H](C)C(=O)N[C@@H](CCCNC(=N)N)C(=O)N[C@@H](CCCNC(=N)N)C(=O)N[C@@H](CCCNC(=N)N)C(=O)O)[C@@H](C)O)[C@@H](C)O` (H-PICRPTTLNLF[Ahx]RRARRARRR-OH): the pIC50 in [12] was 7.05; in [13], 5.92; in assay [14] it was 5.96.
In assay [15], `O=c1c(O)c(-c2ccc(O)c(O)c2)oc2cc(O)c(O)c(O)c12` [QUERCETAGETIN] gave a pIC50 of 5.34. Moreover, the figures for the Activity in [16], in assay [17] and in assay [18] were 73%, 32% and 46.7%, respectively.
H-PKRPTTLNLFRRRQRRKKRG-OH: the pIC50 in assay [12] is 7.04; in [13], 5.92; in [14] it was 5.94.
